Results: patent US20240217979A1, “GluN2 Subunit Selective Antagonists of the N-Methyl-D-Aspartate Receptors” (Emory University, priority 2021, published 2024)

Tests used:
Assay type in all cases: cell-based
rat GluN1/GluN2D [1] = biological target: T1, rat GluN1/GluN2D (Rattus norvegicus, UniProt P35439+Q62645); assay: Two-electrode voltage-clamp recording in Xenopus laevis oocytes expressing recombinant rat GluN1/GluN2D; conditions: Tables 1 and 2; read-out: IC50 (μM) [95% Confidence Interval] GluN2D
T1 construct: expressed in transfected cells; host or cells: Xenopus laevis oocytes (cRNA injection, GluN1/GluN2 ratio 1:2)
T1 sequence (Q62645 28-1323, other chains not shown): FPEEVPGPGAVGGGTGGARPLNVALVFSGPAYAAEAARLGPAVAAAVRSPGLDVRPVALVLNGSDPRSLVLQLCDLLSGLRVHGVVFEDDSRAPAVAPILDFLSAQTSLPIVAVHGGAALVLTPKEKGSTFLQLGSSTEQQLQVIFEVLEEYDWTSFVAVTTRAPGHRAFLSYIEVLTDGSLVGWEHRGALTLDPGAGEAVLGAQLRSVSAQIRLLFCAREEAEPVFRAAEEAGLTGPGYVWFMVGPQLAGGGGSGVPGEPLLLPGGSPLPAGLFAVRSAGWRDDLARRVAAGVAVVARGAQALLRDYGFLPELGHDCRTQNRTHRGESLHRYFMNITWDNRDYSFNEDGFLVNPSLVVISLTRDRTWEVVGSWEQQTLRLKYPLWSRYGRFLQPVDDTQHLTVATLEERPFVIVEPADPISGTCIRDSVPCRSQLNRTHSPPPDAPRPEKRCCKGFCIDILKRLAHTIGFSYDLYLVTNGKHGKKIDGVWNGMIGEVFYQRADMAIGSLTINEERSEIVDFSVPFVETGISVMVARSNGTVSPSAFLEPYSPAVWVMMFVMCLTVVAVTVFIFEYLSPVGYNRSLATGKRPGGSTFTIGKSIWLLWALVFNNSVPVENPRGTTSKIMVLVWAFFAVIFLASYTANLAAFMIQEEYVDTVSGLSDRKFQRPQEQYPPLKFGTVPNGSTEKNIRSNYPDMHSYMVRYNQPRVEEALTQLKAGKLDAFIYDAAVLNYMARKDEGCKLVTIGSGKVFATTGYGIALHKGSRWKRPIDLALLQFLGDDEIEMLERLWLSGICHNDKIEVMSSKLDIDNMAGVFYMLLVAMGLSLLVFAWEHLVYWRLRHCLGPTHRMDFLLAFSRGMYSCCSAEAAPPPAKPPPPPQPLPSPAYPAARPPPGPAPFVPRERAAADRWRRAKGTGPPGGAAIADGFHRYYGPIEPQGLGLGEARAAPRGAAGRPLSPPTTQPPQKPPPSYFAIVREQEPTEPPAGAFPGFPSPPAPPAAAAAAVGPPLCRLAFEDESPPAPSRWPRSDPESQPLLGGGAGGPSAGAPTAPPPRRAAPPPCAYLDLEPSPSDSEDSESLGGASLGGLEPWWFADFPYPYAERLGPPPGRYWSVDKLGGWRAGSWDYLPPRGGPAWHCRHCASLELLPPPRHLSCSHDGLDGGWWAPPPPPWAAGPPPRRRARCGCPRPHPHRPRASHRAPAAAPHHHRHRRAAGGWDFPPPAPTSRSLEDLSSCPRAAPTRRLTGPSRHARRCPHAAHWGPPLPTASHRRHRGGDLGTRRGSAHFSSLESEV
Description: (§1) Two-electrode voltage-clamp recording was performed in Xenopus laevis oocytes injected with mRNA to express recombinant rat GluN1/GluN2A, GluN1/GluN2B, GluN1/GluN2C, and GluN1/GluN2D. cDNAs for rat NMDA subunits GluN1-la (GenBank U08261; hereafter GluN1), GluN2A (GenBank D13211), GluN2B (GenBank U11419), GluN2C (GenBank M91563), and GluN2D (GenBank L31611) were provided by Drs. S. Heinemann from Salk Institute, S. Nakanishi from Kyoto University, and P. Seeburg from the University of Heidelberg. An automatic injector (Nanoject II, Drummond Scientific) was used for cRNA injection using the pipettes filled with mineral oil. The cRNA that transcribed in vitro via the mMessage Machine kit (Ambion) was diluted with nuclease-free water, and then injected at a GluN1/GluN2 ratio of 1:2. The oocytes were stored in Barth's solution that contained 88 mM NaCl, 5.0 mM Tris-HCl, 2.4 mM NaHCO3, 1.0 mM KCl, 0.84 mM MgSO4, 0.41 mM CaCl2), 0.33 mM Ca(NO3)2, 0.1 mg/ml gentamycin sulfate, 1.0 U/ml penicillin, and 1 μg/ml streptomycin at pH 7.4 and temperatures of 15-17° C. for two to five days before the two-electrode voltage-clamp recordings.
(§2) During recording, the oocytes were placed in a perfusion chamber and continually washed with the recording solution containing 90 mM NaCl, 1.0 mM KCl, 0.50 mM BaCl2, 0.005 mM EDTA, and 10 mM HEPES at pH 7.4 and a temperature of 23° C. Glass electrodes with a tip resistance of 0.5 to 2.5 MΩ were obtained from thin-walled glass capillary tubes. Voltage electrodes and current electrodes were filled with 0.3 M and 3.0 M KCl, respectively. The recordings were executed with the oocytes membrane potential holding at −40 mV by an OC-725 amplifier (Warner Instrument Co.). All compounds were dissolved in dimethyl sulfoxide (DMSO) as 20 mM stock solutions and further diluted to reach the desired concentration (0.05-0.5% (vol/vol) DMSO) in recording solution comprised of 30 µM glycine and 100 µM glutamate. In general, each compound was tested in multiple oocytes. To evaluate the inhibitory efficacy of the compounds, concentration-response curves were plotted using the average two-electrode voltage-clamp recording results and fitted by the following equation:
(§3) response=100/{1+[(inhibitor concentration)/IC50]^N} • where IC50 is the concentration of compound that inhibit half maximal of the current response and N is the Hill slope.

rat GluN1/GluN2D [2] = biological target: T2, rat GluN1/GluN2D (Rattus norvegicus, UniProt Q62645); assay: as above; conditions: current ratio reported for 10 μM test compound (footnote c)
T2 construct: expressed in transfected cells; host or cells: Xenopus laevis oocytes (cRNA injection, GluN1/GluN2 ratio 1:2)
T2 sequence (Q62645 28-1323, other chains not shown): as above
Description: as §1, §2, §3

rat GluN1/GluN2B = biological target: T3, rat GluN1/GluN2B (Rattus norvegicus, UniProt Q00960); assay: Two-electrode voltage-clamp recording in Xenopus laevis oocytes expressing recombinant rat GluN1/GluN2B; conditions: current ratio reported for 10 μM test compound (footnote c)
T3 construct: expressed in transfected cells; host or cells: Xenopus laevis oocytes (cRNA injection, GluN1/GluN2 ratio 1:2)
T3 sequence (Q00960 27-1482, other chains not shown): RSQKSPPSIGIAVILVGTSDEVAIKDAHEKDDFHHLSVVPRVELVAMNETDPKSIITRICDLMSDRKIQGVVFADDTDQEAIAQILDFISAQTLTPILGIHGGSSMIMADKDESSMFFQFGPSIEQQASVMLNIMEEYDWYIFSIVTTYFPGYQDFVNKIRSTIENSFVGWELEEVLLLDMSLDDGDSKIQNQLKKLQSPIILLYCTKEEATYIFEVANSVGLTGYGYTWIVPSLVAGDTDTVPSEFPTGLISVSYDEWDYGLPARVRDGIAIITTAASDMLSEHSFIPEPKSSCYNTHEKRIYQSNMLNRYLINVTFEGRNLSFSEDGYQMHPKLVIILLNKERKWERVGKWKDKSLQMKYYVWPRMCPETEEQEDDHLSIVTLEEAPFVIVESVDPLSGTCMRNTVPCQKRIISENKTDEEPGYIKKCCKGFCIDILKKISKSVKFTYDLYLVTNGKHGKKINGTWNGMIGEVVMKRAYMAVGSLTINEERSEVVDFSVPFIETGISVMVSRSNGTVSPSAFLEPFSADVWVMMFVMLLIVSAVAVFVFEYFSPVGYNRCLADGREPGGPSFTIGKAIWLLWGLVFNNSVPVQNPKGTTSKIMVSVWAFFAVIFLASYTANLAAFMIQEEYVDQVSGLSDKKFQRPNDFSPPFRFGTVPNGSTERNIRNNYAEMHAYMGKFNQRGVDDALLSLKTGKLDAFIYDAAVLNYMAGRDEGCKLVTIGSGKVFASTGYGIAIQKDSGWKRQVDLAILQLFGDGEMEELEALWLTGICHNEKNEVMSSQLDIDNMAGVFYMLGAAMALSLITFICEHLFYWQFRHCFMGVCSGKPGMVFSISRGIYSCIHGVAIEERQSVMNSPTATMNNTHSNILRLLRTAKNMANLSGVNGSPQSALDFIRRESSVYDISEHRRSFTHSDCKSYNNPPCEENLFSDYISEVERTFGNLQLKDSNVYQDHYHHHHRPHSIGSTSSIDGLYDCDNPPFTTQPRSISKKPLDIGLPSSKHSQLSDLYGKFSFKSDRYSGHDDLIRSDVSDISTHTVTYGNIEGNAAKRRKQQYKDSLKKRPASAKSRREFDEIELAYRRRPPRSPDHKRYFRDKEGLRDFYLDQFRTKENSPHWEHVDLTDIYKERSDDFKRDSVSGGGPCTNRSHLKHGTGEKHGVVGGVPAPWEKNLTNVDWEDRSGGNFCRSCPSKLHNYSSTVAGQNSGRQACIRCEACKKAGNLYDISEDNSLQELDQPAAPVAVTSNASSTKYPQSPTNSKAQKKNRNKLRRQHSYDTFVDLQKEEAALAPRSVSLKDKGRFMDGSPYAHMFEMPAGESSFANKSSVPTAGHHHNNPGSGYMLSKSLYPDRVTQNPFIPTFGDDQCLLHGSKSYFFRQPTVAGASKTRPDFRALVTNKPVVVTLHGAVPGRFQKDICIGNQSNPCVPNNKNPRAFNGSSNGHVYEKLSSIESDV
Description: as §1, §2, §3

rat GluN1/GluN2C [3] = biological target: T4, rat GluN1/GluN2C (Rattus norvegicus, UniProt P35439+Q00961); assay: Two-electrode voltage-clamp recording in Xenopus laevis oocytes expressing recombinant rat GluN1/GluN2C; conditions: Tables 1 and 2; read-out: IC50 (μM) [95% Confidence Interval] GluN2C
T4 construct: expressed in transfected cells; host or cells: Xenopus laevis oocytes (cRNA injection, GluN1/GluN2 ratio 1:2)
Description: as §1, §2, §3

rat GluN1/GluN2C [4] = biological target: T5, rat GluN1/GluN2C (Rattus norvegicus, UniProt Q00961); assay: as above; conditions: current ratio reported for 10 μM test compound (footnote c)
T5 construct: expressed in transfected cells; host or cells: Xenopus laevis oocytes (cRNA injection, GluN1/GluN2 ratio 1:2)
Description: as §1, §2, §3

rat GluN1/GluN2A = biological target: T6, rat GluN1/GluN2A (Rattus norvegicus, UniProt Q00959); assay: Two-electrode voltage-clamp recording in Xenopus laevis oocytes expressing recombinant rat GluN1/GluN2A; conditions: current ratio reported for 10 μM test compound (footnote c)
T6 construct: expressed in transfected cells; host or cells: Xenopus laevis oocytes (cRNA injection, GluN1/GluN2 ratio 1:2)
T6 sequence (Q00959 23-1464, other chains not shown): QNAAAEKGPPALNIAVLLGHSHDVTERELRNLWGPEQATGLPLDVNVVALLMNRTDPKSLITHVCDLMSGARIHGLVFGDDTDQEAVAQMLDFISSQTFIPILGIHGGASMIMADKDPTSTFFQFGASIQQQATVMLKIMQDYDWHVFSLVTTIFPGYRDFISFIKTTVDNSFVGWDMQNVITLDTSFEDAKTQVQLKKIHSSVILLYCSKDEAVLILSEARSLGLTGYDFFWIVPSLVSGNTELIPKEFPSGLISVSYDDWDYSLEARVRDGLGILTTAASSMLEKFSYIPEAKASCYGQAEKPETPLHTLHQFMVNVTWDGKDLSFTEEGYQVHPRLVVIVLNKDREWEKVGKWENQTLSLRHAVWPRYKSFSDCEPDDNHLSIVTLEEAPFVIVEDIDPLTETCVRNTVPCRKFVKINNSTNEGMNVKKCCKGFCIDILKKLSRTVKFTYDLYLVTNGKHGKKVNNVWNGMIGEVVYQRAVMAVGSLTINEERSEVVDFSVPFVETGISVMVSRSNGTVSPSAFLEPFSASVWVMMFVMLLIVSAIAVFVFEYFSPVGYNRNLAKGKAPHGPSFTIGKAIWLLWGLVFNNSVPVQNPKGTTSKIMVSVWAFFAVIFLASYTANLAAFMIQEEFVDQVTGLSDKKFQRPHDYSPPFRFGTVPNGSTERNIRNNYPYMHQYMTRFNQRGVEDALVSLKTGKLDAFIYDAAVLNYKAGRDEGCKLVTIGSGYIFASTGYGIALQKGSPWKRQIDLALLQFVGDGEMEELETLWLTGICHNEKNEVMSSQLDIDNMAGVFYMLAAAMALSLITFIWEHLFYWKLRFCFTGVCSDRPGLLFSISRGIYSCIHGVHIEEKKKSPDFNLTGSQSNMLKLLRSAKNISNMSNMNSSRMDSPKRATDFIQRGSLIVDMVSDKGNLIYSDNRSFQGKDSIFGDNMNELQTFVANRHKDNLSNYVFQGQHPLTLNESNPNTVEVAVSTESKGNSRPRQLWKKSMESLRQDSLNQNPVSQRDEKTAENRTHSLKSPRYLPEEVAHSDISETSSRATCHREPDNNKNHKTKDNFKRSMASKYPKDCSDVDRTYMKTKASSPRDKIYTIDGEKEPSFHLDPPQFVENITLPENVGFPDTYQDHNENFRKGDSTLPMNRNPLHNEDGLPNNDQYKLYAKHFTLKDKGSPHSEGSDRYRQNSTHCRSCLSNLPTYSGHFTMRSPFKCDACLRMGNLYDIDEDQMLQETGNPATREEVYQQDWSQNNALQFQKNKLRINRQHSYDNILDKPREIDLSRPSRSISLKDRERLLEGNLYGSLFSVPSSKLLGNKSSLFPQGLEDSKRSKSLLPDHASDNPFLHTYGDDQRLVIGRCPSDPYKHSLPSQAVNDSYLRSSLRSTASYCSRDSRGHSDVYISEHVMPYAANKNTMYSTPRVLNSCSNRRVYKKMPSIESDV
Description: as §1, §2, §3

## O=C(O)CC(F)(F)C(=O)N1N=C(c2c(-c3ccc(Cl)cc3)c3ccncc3[nH]c2=O)CC1c1ccc(Cl)cc1 (stereo not drawn) [Compound 120, 4-[3-(4-Chlorophenyl)-5-[4-(4-chlorophenyl)-2-oxo-1H-1,7-naphthyridin-3-yl]-3,4-dihydropyrazol-2-yl]-3,3-difluoro-4-oxo-butanoic acid]
Rat GluN1/GluN2D [1]
  IC50: 0.8 µM
Rat GluN1/GluN2D [2]
  Current ratio I/Icontrol (mean ± SEM, %) GluN2D: 7.4 ± 0.9^c (n = 3, 10) %
Rat GluN1/GluN2B
  Current ratio I/Icontrol (mean ± SEM, %) GluN2B: 82 ± 1.7^c (n = 2, 8) %
Rat GluN1/GluN2C [3]
  IC50: 2.1 µM
Rat GluN1/GluN2C [4]
  Current ratio I/Icontrol (mean ± SEM, %) GluN2C: 18 ± 1.0^c (n = 3, 11) %
Rat GluN1/GluN2A
  Current ratio I/Icontrol (mean ± SEM, %) GluN2A: 77 ± 4.8^c (n = 2, 7) %
